Test results taken from patent US20240247080A1, “GLP1/GIP/NPY2 RECEPTOR TRIPLE AGONISTS” (Boehringer Ingelheim International GmbH, priority 2022, published 2024).
Where two headings read alike, the source gives them in different places. Starred links: 1 amine or outer side, 2 acyl side, 3 side chain; linkers in the order of their positions; H or OH if unused. Positions of bridges follow the written chain, without caps; N, C: chain ends. Non-standard residues stand in square brackets, D forms with d. Groups on a side chain read outwards from the residue. Chains are numbered I, II in the order given. *: point of attachment. C20 diacid = O=C(O)CCCCCCCCCCCCCCCCCCC(=O)*; C18 diacid = O=C(O)CCCCCCCCCCCCCCCCC(=O)*; γGlu = O=C(O)[C@H](CCC(=O)[*:2])N[*:1]; εLys = N[C@@H](CCCCN[*:1])C(=O)[*:2]; AEEA = NCCOCCOCC(=O)O; Aib = CC(C)(N)C(=O)O

Experiments:
Assay type in all cases: cell-based
Details in all cases: CreLuc reporter gene assay
hGIPR = target: T1, hGIPR (Homo sapiens, UniProt P48546); assay: hGIPR CreLuc reporter gene assay in 0.5% and 100% plasma
T1 construct: expressed in transfected cells; host or cells: CHO cells carrying a CRE-luciferase reporter gene
T1 sequence (P48546 22-466): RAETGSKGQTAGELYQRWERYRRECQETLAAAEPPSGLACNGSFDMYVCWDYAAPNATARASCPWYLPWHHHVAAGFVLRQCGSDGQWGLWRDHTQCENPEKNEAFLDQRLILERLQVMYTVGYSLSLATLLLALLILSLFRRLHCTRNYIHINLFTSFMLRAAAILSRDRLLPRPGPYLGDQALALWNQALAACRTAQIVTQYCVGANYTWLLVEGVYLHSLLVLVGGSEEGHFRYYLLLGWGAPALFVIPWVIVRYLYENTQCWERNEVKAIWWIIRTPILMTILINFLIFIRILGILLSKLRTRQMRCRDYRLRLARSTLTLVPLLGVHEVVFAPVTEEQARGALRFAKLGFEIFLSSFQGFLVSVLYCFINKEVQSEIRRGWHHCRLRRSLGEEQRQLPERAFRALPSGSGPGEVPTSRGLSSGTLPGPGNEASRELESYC
Procedure, shortened: (§1)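 HEK cells (GLP-1R, NPY2R) or CHO cells (GIPR) carrying a CRE-luciferase reporter, incubated 4 h at 37 °C with peptides in HBSS/20 mM HEPES pH 7.4 plus 0.5% human plasma, or in 100% plasma. Luminescence read; EC50 from 8-point variable-slope sigmoid fits.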

hNPY2R = target: T2, hNPY2R (Homo sapiens, UniProt P49146); assay: hNPY2R CreLuc reporter gene assay in 0.5% and 100% plasma
T2 construct: expressed in transfected cells; host or cells: HEK-293 cells carrying a CRE-luciferase reporter gene
T2 sequence (P49146 1-381): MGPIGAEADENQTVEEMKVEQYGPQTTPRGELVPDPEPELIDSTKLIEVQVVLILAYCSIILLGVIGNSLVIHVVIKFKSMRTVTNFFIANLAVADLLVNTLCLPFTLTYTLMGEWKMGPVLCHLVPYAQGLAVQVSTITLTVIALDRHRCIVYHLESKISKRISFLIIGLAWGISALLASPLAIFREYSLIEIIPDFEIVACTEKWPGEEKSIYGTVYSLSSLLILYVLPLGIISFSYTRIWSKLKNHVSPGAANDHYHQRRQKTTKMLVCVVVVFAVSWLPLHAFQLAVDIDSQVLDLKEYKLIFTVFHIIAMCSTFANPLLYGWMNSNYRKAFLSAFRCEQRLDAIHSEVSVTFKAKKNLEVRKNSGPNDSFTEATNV
Procedure, shortened: as §1

hGLP1R = target: T3, hGLP1R (Homo sapiens, UniProt P43220); assay: hGLP1R CreLuc reporter gene assay in 0.5% and 100% plasma
T3 construct: expressed in transfected cells; host or cells: HEK-293 cells carrying a CRE-luciferase reporter gene
Procedure, shortened: as §1

[1] = 0.5% human plasma, read-out: hGIPR 0.5% hP
[2] = 100% human plasma, read-out: hGIPR 100% hP
[3] = 0.5% human plasma, read-out: hNPY2R 0.5% hP
[4] = 0.5% human plasma, read-out: hGLP1R 0.5% hP
[5] = 100% human plasma, read-out: hGLP1R 100% hP
[6] = 100% human plasma, read-out: hNPY2R 100% hP

T3 sequence (P43220 24-463): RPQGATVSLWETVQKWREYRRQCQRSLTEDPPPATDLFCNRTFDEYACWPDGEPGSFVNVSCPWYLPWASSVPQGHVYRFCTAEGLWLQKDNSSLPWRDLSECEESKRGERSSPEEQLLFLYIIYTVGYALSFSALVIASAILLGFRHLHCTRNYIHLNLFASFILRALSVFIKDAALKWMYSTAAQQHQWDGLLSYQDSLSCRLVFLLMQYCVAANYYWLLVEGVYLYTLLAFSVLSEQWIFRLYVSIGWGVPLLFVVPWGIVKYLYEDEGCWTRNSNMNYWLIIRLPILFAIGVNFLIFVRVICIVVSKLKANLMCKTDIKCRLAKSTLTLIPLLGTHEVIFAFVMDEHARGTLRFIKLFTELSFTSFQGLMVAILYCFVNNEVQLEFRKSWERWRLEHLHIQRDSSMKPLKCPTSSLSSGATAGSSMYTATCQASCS

Compound	EC50 (hGIPR; [1]) [nM]	EC50 (hGIPR; [2]) [nM]	EC50 (hNPY2R; [3]) [nM]	EC50 (hGLP1R; [4]) [nM]	EC50 (hGLP1R; [5]) [nM]	EC50 (hNPY2R; [6]) [nM]
I: H-Y[Aib]EGTFTSDYSI[Aib]LEKQAQ[Aib]AFVQWLIKGGPSEGASLRHYYNWLTRQRY-NH2 / II: {C18 diacid}-EEEEEE (amide I:28-II:C) [Compound 264, Y-Aib-E-G-T-F-T-S-D-Y-S-I-Aib-L-E-K-Q-A-Q-Aib-A-F-V-Q-W-L-I-K(1,3)-GGPSEGASLRHYYNWLTRQRY-NH2.C18DA-E-E-E-E-E-E(1,2)]	0.28	1.82	16.7	0.11	3.95	
H-Y[Aib]EGTFTSDYSI[Aib]LEAAKQ[Aib]AFVEWLIK([εLys-γGlu-γGlu-γGlu-γGlu-γGlu-γGlu-C20 diacid])GGPSSGASLRHYYNWLTRQRY-NH2 [Compound 25, Y-Aib-E-G-T-F-T-S-D-Y-S-I-Aib-L-E-A-A-K-Q-Aib-A-F-V-E-W-L-I-K(1,3)-GGPSSGASLRHYYNWLTRQRY-NH2.C20DA-gGlu-gGlu-gGlu-gGlu-gGlu-gGlu-eLys(1,2)]	0.98		13		14.2	
H-Y[Aib]EGTFTSDYSI[Aib]LEKQAQ[Aib]AFVEWLIK([εLys-γGlu-γGlu-γGlu-γGlu-γGlu-γGlu-C20 diacid])GGPSSGASLRHYYNL[Aib]TRQRY-NH2 [Compound 79, Y-Aib-E-G-T-F-T-S-D-Y-S-I-Aib-L-E-K-Q-A-Q-Aib-A-F-V-E-W-L-I-K(1,3)-G-G-P-S-S-G-A-S-L-R-H-Y-Y-N-L-Aib-T-R-Q-R-Y-NH2.C20DA-gGlu-gGlu-gGlu-gGlu-gGlu-gGlu-eLys(1,2)]	0.29	1.86	87.6	0.11		
H-Y[Aib]EGTFTSDYSI[Aib]LEKQAQ[Aib]AFVEWLIK([εLys-γGlu-γGlu-γGlu-γGlu-γGlu-γGlu-C20 diacid])GGPSSGASLRHY[Aib]NR[Aib]TRQRY-NH2 [Compound 18, Y-Aib-E-G-T-F-T-S-D-Y-S-I-Aib-L-E-K-Q-A-Q-Aib-A-F-V-E-W-L-I-K(1,3)-G-G-P-S-S-G-A-S-L-R-H-Y-Aib-N-R-Aib-T-R-Q-R-Y-NH2.C20DA-gGlu-gGlu-gGlu-gGlu-gGlu-gGlu-eLys(1,2)]	0.36		85.7	0.12		
H-Y[Aib]EGTFTSDYSI[Aib]LEKQAQ[Aib]EFVEWLIK([AEEA-AEEA-γGlu-γGlu-γGlu-γGlu-C18 diacid])GGPSSPASLRHYYNWLTRQRY-NH2 [Compound 56, Y-Aib-E-G-T-F-T-S-D-Y-S-I-Aib-L-E-K-Q-A-Q-Aib-E-F-V-E-W-L-I-K(1,3)-GGPSSPASLRHYYNWLTRQRY-NH2.C18DA-gGlu-gGlu-gGlu-gGlu-OEG-OEG(1,2)]	0.27		27.3	0.25	8.97	48.8
H-Y[Aib]EGTFTSDYSI[Aib]LEKQAQ[Aib]AFVEWLIK([εLys-γGlu-γGlu-γGlu-γGlu-γGlu-γGlu-C20 diacid])GGPSSGASL[Aib]HYYNWLTRQRY-NH2 [Compound 129, Y-Aib-E-G-T-F-T-S-D-Y-S-I-Aib-L-E-K-Q-A-Q-Aib-A-F-V-E-W-L-I-K(1,3)-G-G-P-S-S-G-A-S-L-Aib-H-Y-Y-N-W-L-T-R-Q-R-Y-NH2.C20DA-gGlu-gGlu-gGlu-gGlu-gGlu-gGlu-eLys(1,2)]	0.06	0.5	30.9	0.04		87.6
H-Y[Aib]EGTFTSDYSI[Aib]LEKQAE[Aib]AFVQWLIK([εLys-γGlu-γGlu-γGlu-γGlu-C18 diacid])GGPSEGASLRHYYNWLTRQRY-NH2 [Compound 174, Y-Aib-E-G-T-F-T-S-D-Y-S-I-Aib-L-E-K-Q-A-E-Aib-A-F-V-Q-W-L-I-K(1,3)-GGPSEGASLRHYYNWLTRQRY-NH2.C18DA-gGlu-gGlu-gGlu-gGlu-eLys(1,2)]	0.17	1.26	11.5	0.22	7.71	39.2
H-Y[Aib]EGTFTSDYSI[Aib]LEKQAQ[Aib]AFVEWLIK([γGlu-γGlu-γGlu-γGlu-γGlu-C18 diacid])GGPSSPASLRHYYNWLTRQRY-NH2 [Compound 180, Y-Aib-E-G-T-F-T-S-D-Y-S-I-Aib-L-E-K-Q-A-Q-Aib-A-F-V-E-W-L-I-K(1,3)-GGPSSPASLRHYYNWLTRQRY-NH2.C18DA-gGlu-gGlu-gGlu-gGlu-gGlu(1,2)]	0.2			0.1		107
CC[C@H](C)[C@H](NC(=O)[C@H](CC(C)C)NC(=O)[C@H](Cc1c[nH]c2ccccc12)NC(=O)[C@H](CCC(=O)O)NC(=O)[C@@H](NC(=O)[C@H](Cc1ccccc1)NC(=O)[C@H](C)NC(=O)C(C)(C)NC(=O)[C@H](CCC(N)=O)NC(=O)[C@H](C)NC(=O)[C@H](CCC(N)=O)NC(=O)[C@H](CCCCN)NC(=O)[C@H](CCC(=O)O)NC(=O)[C@H](CC(C)C)NC(=O)C(C)(C)NC(=O)[C@@H](NC(=O)[C@H](CO)NC(=O)[C@H](Cc1ccc(O)cc1)NC(=O)[C@H](CC(=O)O)NC(=O)[C@H](CO)NC(=O)[C@@H](NC(=O)[C@H](Cc1ccccc1)NC(=O)[C@@H](NC(=O)CNC(=O)[C@H](CCC(=O)O)NC(=O)C(C)(C)NC(=O)[C@@H](N)Cc1ccc(O)cc1)[C@@H](C)O)[C@@H](C)O)[C@@H](C)CC)C(C)C)C(=O)N[C@@H](CCCCNC(=O)[C@@H](N)CCCCNC(=O)CC[C@H](NC(=O)CC[C@H](NC(=O)CC[C@H](NC(=O)CC[C@H](NC(=O)CC[C@H](NC(=O)CC[C@H](NC(=O)CCCCCCCCCCCCCCCCCCC(=O)O)C(=O)O)C(=O)O)C(=O)O)C(=O)O)C(=O)O)C(=O)O)C(=O)NCC(=O)NCC(=O)N1CCC[C@H]1C(=O)N[C@@H](CO)C(=O)N[C@@H](CCC(=O)O)C(=O)N1CCC[C@H]1C(=O)N[C@@H](CCC(=O)O)C(=O)N[C@@H](CO)C(=O)N[C@@H](CC(C)C)C(=O)N[C@@H](CCCNC(=N)N)C(=O)N[C@@H](Cc1c[nH]cn1)C(=O)N[C@@H](Cc1ccc(O)cc1)C(=O)N[C@@H](Cc1ccc(O)cc1)C(=O)N[C@@H](CC(N)=O)C(=O)N[C@@H](Cc1c[nH]c2ccccc12)C(=O)N[C@@H](CC(C)C)C(=O)N[C@H](C(=O)N[C@@H](CCCNC(=N)N)C(=O)N[C@@H](CCC(N)=O)C(=O)N[C@@H](CCCNC(=N)N)C(=O)N[C@@H](Cc1ccc(O)cc1)C(N)=O)[C@@H](C)O [Compound 122, Y-Aib-E-G-T-F-T-S-D-Y-S-I-Aib-L-E-K-Q-A-Q-Aib-A-F-V-E-W-L-I-K(1,3)-GGPSEPESLRHYYNWLTRQRY-NH2.C20DA-gGlu-gGlu-gGlu-gGlu-gGlu-gGlu-eLys(1,2)]	0.08	1.53		0.22		78.9
H-Y[Aib]EGTFTSDYSI[Aib]LEKAAQ[Aib]AFVEWLIK([εLys-γGlu-γGlu-γGlu-γGlu-γGlu-γGlu-C20 diacid])GGPSSGASLRHYYNWLTRQRY-NH2 [Compound 136, Y-Aib-E-G-T-F-T-S-D-Y-S-I-Aib-L-E-K-A-A-Q-Aib-A-F-V-E-W-L-I-K(1,3)-GGPSSGASLRHYYNWLTRQRY-NH2.C20DA-gGlu-gGlu-gGlu-gGlu-gGlu-gGlu-eLys(1,2)]	0.31	2.03	15.1	0.32		64.7
H-Y[Aib]EGTFTSDYSI[Aib]LEKQAQ[Aib]EFVEWLIK([AEEA-AEEA-γGlu-C18 diacid])GGPSEGASLRHYYNWLTRQRY-NH2 [Compound 282, Y-Aib-E-G-T-F-T-S-D-Y-S-I-Aib-L-E-K-Q-A-Q-Aib-E-F-V-E-W-L-I-K(1,3)-GGPSEGASLRHYYNWLTRQRY-NH2.C18DA-gGlu-OEG-OEG(1,2)]	0.17	1.03	17.3	0.51		
